Experimental data reported in patent US20100267561A1, “HERBICIDAL PYRIDAZINONE DERIVATIVES” (priority 2007, published 2010).

Columns and labels:
Assay type in all cases: in vivo
[1] = test system: common (oilseed) sunflower (Helianthus annuus); experiment: Test B pre-/postemergence plant response; conditions: Preemergence; for Sunflower plant response rating: scale 0 to 100
Outline: (§1)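 Seeds were sown and sprayed preemergence, while plants at 2 to 18 cm (1- to 4-leaf stage) got postemergence sprays. Compounds were formulated in a non-phytotoxic solvent mixture with surfactant. After 13 to 15 days in a greenhouse, injury was rated visually against untreated controls, 0 (no effect) to 100 (complete control).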

[2] = test system: common ragweed (Ambrosia elation); experiment: Test B pre-/postemergence plant response
Outline: as §1

[3] = test system: eastern black (E.B.) nightshade (Solanum ptycanthum); experiment: Test B pre-/postemergence plant response; conditions: Preemergence; for Nightshade, E. B. plant response rating: scale 0 to 100
Outline: as §1

[4] = test system: giant foxtail (Setaria faberii); experiment: Test B pre-/postemergence plant response
Outline: as §1

[5] = test system: goosegrass (Eleusine indica); experiment: Test B pre-/postemergence plant response
Outline: as §1

[6] = test system: green foxtail (Setaria viridis); experiment: Test B pre-/postemergence plant response
Outline: as §1

[7] = test system: johnsongrass (Sorghum halepense); experiment: Test B pre-/postemergence plant response
Outline: as §1

[8] = test system: large crabgrass (Digitaria sanguinalis); experiment: Test B pre-/postemergence plant response
Outline: as §1

[9] = test system: pigweed (Amaranthus retroflexus); experiment: Test B pre-/postemergence plant response
Outline: as §1

[10] = test system: velvetleaf (Abutilon theophrasti); experiment: Test B pre-/postemergence plant response
Outline: as §1

wild oat (Avena fatua) = experiment: Test B pre-/postemergence plant response
Outline: as §1

[11] = test system: woolly cupgrass (Eriochloa villosa); experiment: Test B pre-/postemergence plant response
Outline: as §1

[12] = test system: ducksalad (Heteranthera limosa); experiment: Test B flooded paddy test plant response; conditions: Flood (flooded paddy test), scale 0 to 100, 0 no effect, 100 complete control
Outline: (§2)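 Compounds were added directly to paddy water over 2-leaf-stage plants in pots flooded 3 cm above soil, water depth maintained. Visual injury scored against controls after 13 to 15 days in greenhouse, 0 (none) to 100 (complete control); dash indicates no result.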

rice (Oryza sativa) = experiment: Test B flooded paddy test plant response
Outline: as §2

[13] = 31 g ai/ha, scale 0 to 100 (0 no effect, 100 complete control)
[14] = 62 g ai/ha, 0 to 100 scale, 0 no effect, 100 complete control
[15] = 8 g ai/ha, postemergence, 0-100 scale
[16] = Postemergence, 16 g ai/ha, scale 0 to 100
[17] = Postemergence, 31 g ai/ha, scale 0 to 100
[18] = Postemergence, 62 g ai/ha, scale 0 to 100, 0 no effect, 100 complete control
[19] = Preemergence, 31 g ai/ha, scale 0 to 100 (0 no effect, 100 complete control)
[20] = Preemergence, 62 g ai/ha, 0 to 100 scale, 0 no effect, 100 complete control
[21] = Preemergence, 8 g ai/ha, scale 0 to 100
[22] = Preemergence, 16 g ai/ha, scale 0 to 100

Cc1cc(-c2ccc(Cl)cc2)nn1-c1c(OC(=O)OCC(C)C)cnn(C)c1=O [Compound 57]
Plant response rating, Sunflower [1, 13]: 0
Plant response rating, Sunflower [1, 14]: 0
Sunflower plant response rating ([1]; 8 g ai/ha): 0
Sunflower plant response rating ([1]; 16 g ai/ha): 0
Ragweed plant response rating [2, 15]: 0
Plant response rating, Ragweed [2, 16]: 0
Plant response rating, Ragweed [2, 17]: 0
Plant response rating, Ragweed [2, 18]: 0
Plant response rating, Ragweed [2, 19]: 0
Plant response rating, Ragweed [2, 20]: 0
Ragweed plant response rating [2, 21]: 0
Ragweed plant response rating [2, 22]: 0
Plant response rating, Nightshade, E. B. [3, 13]: 0
Plant response rating, Nightshade, E. B. [3, 14]: 0
Nightshade, E. B. plant response rating ([3]; 8 g ai/ha): 0
Nightshade, E. B. plant response rating ([3]; 16 g ai/ha): 0
Foxtail, Giant plant response rating [4, 15]: 80
Plant response rating, Foxtail, Giant [4, 16]: 95
Plant response rating, Foxtail, Giant [4, 17]: 98
Plant response rating, Foxtail, Giant [4, 18]: 100
Plant response rating, Foxtail, Giant [4, 19]: 100
Plant response rating, Foxtail, Giant [4, 20]: 100
Foxtail, Giant plant response rating [4, 21]: 98
Foxtail, Giant plant response rating [4, 22]: 98
Goosegrass plant response rating [5, 15]: 65
Plant response rating, Goosegrass [5, 16]: 80
Plant response rating, Goosegrass [5, 17]: 85
Plant response rating, Goosegrass [5, 18]: 90
Plant response rating, Goosegrass [5, 19]: 98
Plant response rating, Goosegrass [5, 20]: 100
Goosegrass plant response rating [5, 21]: 0
Goosegrass plant response rating [5, 22]: 0
Foxtail, Green plant response rating [6, 15]: 80
Plant response rating, Foxtail, Green [6, 16]: 95
Plant response rating, Foxtail, Green [6, 17]: 100
Plant response rating, Foxtail, Green [6, 18]: 100
Plant response rating, Foxtail, Green [6, 19]: 100
Plant response rating, Foxtail, Green [6, 20]: 100
Foxtail, Green plant response rating [6, 21]: 70
Foxtail, Green plant response rating [6, 22]: 100
Johnsongrass plant response rating [7, 15]: 15
Plant response rating, Johnsongrass [7, 16]: 65
Plant response rating, Johnsongrass [7, 17]: 90
Plant response rating, Johnsongrass [7, 18]: 100
Plant response rating, Johnsongrass [7, 19]: 90
Plant response rating, Johnsongrass [7, 20]: 100
Johnsongrass plant response rating [7, 21]: 65
Johnsongrass plant response rating [7, 22]: 90
Crabgrass, Large plant response rating [8, 15]: 75
Plant response rating, Crabgrass, Large [8, 16]: 95
Plant response rating, Crabgrass, Large [8, 17]: 98
Plant response rating, Crabgrass, Large [8, 18]: 100
Plant response rating, Crabgrass, Large [8, 19]: 98
Plant response rating, Crabgrass, Large [8, 20]: 100
Crabgrass, Large plant response rating [8, 21]: 0
Crabgrass, Large plant response rating [8, 22]: 0
Pigweed plant response rating [9, 15]: 0
Plant response rating, Pigweed [9, 16]: 0
Plant response rating, Pigweed [9, 17]: 0
Plant response rating, Pigweed [9, 18]: 0
Plant response rating, Pigweed [9, 19]: 0
Plant response rating, Pigweed [9, 20]: 0
Pigweed plant response rating [9, 21]: 0
Pigweed plant response rating [9, 22]: 0
Velvetleaf plant response rating [10, 15]: 0
Plant response rating, Velvetleaf [10, 16]: 0
Plant response rating, Velvetleaf [10, 17]: 0
Plant response rating, Velvetleaf [10, 18]: 0
Plant response rating, Velvetleaf [10, 19]: 0
Plant response rating, Velvetleaf [10, 20]: 0
Velvetleaf plant response rating [10, 21]: 0
Velvetleaf plant response rating [10, 22]: 0
Oat, Wild plant response rating (wild oat (Avena fatua); [15]): 85
Plant response rating, Oat, Wild (wild oat (Avena fatua); [16]): 85
Plant response rating, Oat, Wild (wild oat (Avena fatua); [17]): 95
Plant response rating, Oat, Wild (wild oat (Avena fatua); [18]): 98
Plant response rating, Oat, Wild (wild oat (Avena fatua); [19]): 70
Plant response rating, Oat, Wild (wild oat (Avena fatua); [20]): 80
Oat, Wild plant response rating (wild oat (Avena fatua); [21]): 0
Oat, Wild plant response rating (wild oat (Avena fatua); [22]): 60
Cupgrass, Woolly plant response rating [11, 15]: 65
Plant response rating, Cupgrass, Woolly [11, 16]: 90
Plant response rating, Cupgrass, Woolly [11, 17]: 100
Plant response rating, Cupgrass, Woolly [11, 18]: 100
Plant response rating, Cupgrass, Woolly [11, 19]: 85
Plant response rating, Cupgrass, Woolly [11, 20]: 100
Cupgrass, Woolly plant response rating [11, 21]: 0
Cupgrass, Woolly plant response rating [11, 22]: 20
Plant response rating, Ducksalad ([12]; 62 g ai/ha): 0
Plant response rating, Ducksalad ([12]; 125 g ai/ha): 0
Plant response rating, Ducksalad ([12]; 250 g ai/ha): 70
Plant response rating, Rice (rice (Oryza sativa); Flood (flooded paddy test), 62 g ai/ha, scale 0 to 100, 0 no effect, 100 complete control): 0
Plant response rating, Rice (rice (Oryza sativa); Flood (flooded paddy test), 125 g ai/ha, scale 0 to 100, 0 no effect, 100 complete control): 10
Plant response rating, Rice (rice (Oryza sativa); Flood (flooded paddy test), 250 g ai/ha, scale 0 to 100, 0 no effect, 100 complete control): 15
Plant response rating, Rice (rice (Oryza sativa); Flood, 31 g ai/ha, scale 0 to 100): 0
